{"source": "patent US20100222434A1", "about": "“PHARMACEUTICAL COMPOSITION FOR […]-BETA PROTEIN ACCUMULATION” (Sumitomo Chemical Company, Limited, priority 2007, published 2010)", "test_system": "Aβ accumulation in cultured nerve cells (CHP212 cells)", "experiment": "Measurement of fluctuation in the amount of Aβ accumulation in cultured nerve cells", "format": "cell-based", "conditions": "human neuroblastoma CHP212 cells; Aβ in the medium by ELISA (Amyloid β1-42 kit) 48 hours after addition of test substance; 10^−11 M to 10^−6 M; versus DMSO control (100%)", "description": "FIG. 1 is a diagram showing results of measuring fluctuation caused by a test substance of the formula (II) in the amount of Aβ accumulation in cultured nerve cells (CHP212 cells).\nIn the diagram, each column represents, starting from the left, a result of measurement obtained in a control well to which only a solvent (DMSO) has been added, in a well to which the test substance has been added so that its final concentration can be 10^−11 M (10^−11 M), in a well to which the test substance has been added so that its final concentration can be 10^−10 M (10^−10 M), in a well to which the test substance A has been added so that its final concentration can be 10^−9 M (10^−9 M), in a well to which the test substance has been added so that its final concentration can be 10^−8 M (10^−8 M), in a well to which the test substance has been added so that its final concentration can be 10^−7 M (10^−7 M), and in a well to which the test substance has been added so that its final concentration can be 10^−6 M (10^−6 M). The results are shown in % by setting a result obtained in a control well to which only a solvent (DMSO) has been added as 100%. […]"}
{"smiles": "CCCN(CC1CC1)c1ccc(C#N)c(C(F)(F)F)c1", "note": "[formula (II)]", "values": [{"measurement": "amount of Aβ accumulation", "value": "markedly decreased"}]}
